PMC9360614, “Discovery of TIGIT inhibitors based on DEL and machine learning” (Frontiers in Chemistry, 2022)

Molecular target: T1, TIGIT/CD155 complex (Homo sapiens, UniProt Q495A1)
T1 construct: purchased 63ADK000CB07PEG
T1 sequence (Q495A1 22-141 limits assumed): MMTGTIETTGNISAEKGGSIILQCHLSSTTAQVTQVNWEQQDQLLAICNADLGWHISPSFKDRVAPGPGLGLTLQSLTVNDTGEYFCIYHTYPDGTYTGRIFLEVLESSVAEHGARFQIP
Assay: HTRF TIGIT/CD155 binding assay (blocking of TIGIT/CD155 complex)
Details: for TIGIT binding effects compared with compound 1: derivatives with side chains R1, R2, R3 modified; for IC50: read-out: IC50, protein-protein blocking activity for TIGIT/CD155 complex
Description: Thus, the most enriched library molecule was found in the TIGIT screening and marked as potential ligand 1 (highlighted red in Figure 2A), whereas it was not observed in the bead-only control (Supplementary Figure S1B). The hit compound 1 was re-synthesized by “off-DNA” (the structure is shown in Figure 2B), and corresponding binding affinity was tested utilizing homogeneous time-resolved fluorescence (HTRF) technology.
For all compounds, the binding affinities were measured with TIGIT/CD155 Binding Assay (Immuno-Oncology, Part # 63ADK000CB07PEG) following the standard kit protocol.

Row | Structure (SMILES) | TIGIT binding effects compared with compound 1 | binding affinity rank among derivatives | IC50
1 | COc1ccc(C(NC(=O)[C@H](Cc2ccsc2)NC(=O)c2ccc3cc(OC)ccc3c2)c2ccc(OCC(=O)O)cc2)c(OC)c1 (stereo partly shown) [Compound a6] | improved |  | 
2 | COc1ccc(C(NC(=O)[C@H](Cc2csc3ccccc23)NC(=O)[C@@H](C)c2ccc3cc(OC)ccc3c2)c2ccc(OCC(=O)O)cc2)c(OC)c1 (stereo partly shown) [Compound a16] | improved |  | 
3 | COc1ccc(C(NC(=O)C(Cc2ccsc2)NC(=O)C(C)c2ccc3cc(OC)ccc3c2)c2ccc(OCC(=O)O)cc2)c(OC)c1 (stereo not shown) [Compound 1] |  |  | 20.7 µM

Results, then the molecule that gave them:

Row | TIGIT binding effects compared with compound 1 | binding affinity rank among derivatives | IC50 | Structure (SMILES)
4 | improved |  |  | COc1ccc(C(NC(=O)[C@H](Cc2ccccc2)NC(=O)[C@@H](C)c2ccc3cc(OC)ccc3c2)c2ccc(OCC(=O)O)cc2)c(OC)c1 (stereo partly shown) [Compound a17]
5 | improved |  |  | COc1ccc(C(NC(=O)[C@H](Cc2cccc(C#N)c2)NC(=O)[C@@H](C)c2ccc3cc(OC)ccc3c2)c2ccc(OCC(=O)O)cc2)c(OC)c1 (stereo partly shown) [Compound a19]
6 | improved |  |  | COc1ccc(C(NC(=O)[C@H](Cc2ccc(F)cc2)NC(=O)[C@@H](C)c2ccc3cc(OC)ccc3c2)c2ccc(OCC(=O)O)cc2)c(OC)c1 (stereo partly shown) [Compound a18]
7 | improved | highest binding affinity | 3.9 µM | COc1ccc(C(NC(=O)[C@H](Cc2ccsc2)NC(=O)/C=C/c2ccc3cc(OC)ccc3c2)c2ccc(OCC(=O)O)cc2)c(OC)c1 (stereo partly shown) [Compound a7]
8 | improved |  |  | COc1ccc2cc([C@H](C)C(=O)N[C@@H](Cc3csc4ccccc34)C(=O)NCc3ccc(OCC(=O)O)cc3)ccc2c1 [Compound a27]
